The text below walks through data of publication PMC7762955, “Antibiotic binding releases autoinhibition of the TipA multidrug-resistance transcriptional regulator” (The Journal of Biological Chemistry, 2020).

Residue numbers refer to the chain shown, from its start.

The subject of data set [1] is TipAL. Kind of data set: FPA, thiostrepton-induced activation of TipAL-ptipA binding. The class given is biochemical, Streptomyces lividans. The following applies: WT TipAL with vs without thiostrepton (1:1, 15 min). The method, then:
(§1) FPAs were performed in buffer consisting of 20 mM Tris-HCl, pH 7.5, 200 mM NaCl and 5% (v/v) glycerol at 298 K using a SpectraMax M5 microplate reader system (Molecular Devices, San Jose, CA, USA). The wavelengths of fluorescence excitation and emission were 486 and 525 nm, respectively. 26-bp dsDNA from the −10 and −35 regions of the tipA, mta, and skgA promoters with the sequences […], […], and […] were synthesized with a 5′-carboxyfluorescein label for the respective assays with TipAL, Mta, and SkgA proteins. For assays with thiostrepton supplementation, proteins were incubated with thiostrepton (Sigma) at a 1:1 ratio for 15 min prior to mixing with DNA in wells. Each well of a 384-well plate contained 10 nM of a fluorescently labeled DNA probe and different amounts of proteins with a final volume of 80 μl. DNA-free controls were included, and three replicates were performed for each reaction for each assay. The fluorescence polarization ΔP (in mP units) was calculated and fitted according to a one-site specific binding model using GraphPad Prism7 (GraphPad Software) with the function ΔP = ΔPmax[protein]/(Kd + [protein]).

Data set [2] has as its target T1, F123A mutant of TipAL (Streptomyces lividans, UniProt P0A4T9, F123A). Kind of data set: FPA, thiostrepton-induced activation of F123A TipAL-ptipA binding. The following applies: thiostrepton 1:1, 15 min. It counts as biochemical. On the procedure: as §1
Target sequence in this assay (P0A4T9 whole entry F123A): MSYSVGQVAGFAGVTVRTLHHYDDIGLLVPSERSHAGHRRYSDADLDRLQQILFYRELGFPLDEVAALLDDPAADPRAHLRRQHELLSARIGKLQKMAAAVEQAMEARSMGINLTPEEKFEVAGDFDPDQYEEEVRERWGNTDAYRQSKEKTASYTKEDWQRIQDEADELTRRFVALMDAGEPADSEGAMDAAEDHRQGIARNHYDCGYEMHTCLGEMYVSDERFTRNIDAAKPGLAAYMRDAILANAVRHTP
Data set [3] addresses T2, F123A/F126A mutant of TipAL (Streptomyces lividans, UniProt P0A4T9, F123A/F126A). Kind of data set: FPA, thiostrepton-induced activation of F123A/F126A TipAL-ptipA binding. The class given is biochemical. To be noted: thiostrepton 1:1, 15 min. The method, then: as §1
Data set [4] deals with WT TipAL (Streptomyces lividans, UniProt P0A4T9). Kind of data set: Isothermal titration calorimetry, thiopeptide binding to WT TipAL. The method, then: (§2) The ITC binding studies of the nosiheptide (Sigma) with WT TipAL and its mutants were performed using an ITC200 (GE Healthcare) at 298 K using a previously described protocol ([38]), with 60 μl of nosiheptide solution in the injector cell and 260 μl of protein solution in the sample cell. The injection volumes were set to […] for all experiments, and two consecutive injections were separated by 2 min to reset the baseline. The control experiments, in which nosiheptide was titrated against the buffer, were also conducted, and the results were subtracted from the results of each standard experiment for adjustments. Three replicates were performed for each reaction. The final data were processed with a one-site fitting model using Microcal-Origin (OriginLab Corp, Northampton, MA, USA).
In general terms: In ITC the heat of successive injections is recorded.

The target of data set [5] is T1, F123A mutant of TipAL. Briefly: Isothermal titration calorimetry, thiopeptide binding to F123A TipAL. On the procedure:
as §2

Data set [6] deals with T2, F123A/F126A mutant of TipAL. Kind of data set: Isothermal titration calorimetry, thiopeptide binding to F123A/F126A TipAL. The method, then:
as §2

In data set [7] the target is I112A/F123A mutant of TipAL (Streptomyces lividans, UniProt P0A4T9, F123A/I112A). Briefly: Isothermal titration calorimetry, thiopeptide binding to I112A/F123A TipAL. The method, then:
as §2

The target of data set [8] is T3, TipAN (Streptomyces lividans, UniProt P0A4T9 1-109).
T3 sequence: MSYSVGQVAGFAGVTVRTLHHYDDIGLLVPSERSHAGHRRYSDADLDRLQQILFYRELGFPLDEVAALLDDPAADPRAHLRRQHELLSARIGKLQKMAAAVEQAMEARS
Kind of data set: fluorescence polarization; no thiostrepton; 20 mM Tris-HCl pH 7.5, 200 mM NaCl, 5% (v/v) glycerol, 298 K; 10 nM labeled DNA. To be noted: protein: recombinant; tags: His6 (pET-28a); chain copies: 2; label: 5'-carboxyfluorescein; blunt.

The target in data set [9] is T4, TipAH7 (Streptomyces lividans, UniProt P0A4T9 1-140).
T4 sequence: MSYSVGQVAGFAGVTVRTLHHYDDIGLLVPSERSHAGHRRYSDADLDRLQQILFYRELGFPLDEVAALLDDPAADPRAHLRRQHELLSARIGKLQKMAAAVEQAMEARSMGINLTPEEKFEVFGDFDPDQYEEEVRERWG
Described as above. The following applies: protein: recombinant; tags: His6 (pET-28a); chain copies: 2; label: 5'-carboxyfluorescein; blunt.

The target in data set [10] is T5, TipAL F123A/F126A (Streptomyces lividans, UniProt P0A4T9 1-253, F123A;F126A).
T5 sequence: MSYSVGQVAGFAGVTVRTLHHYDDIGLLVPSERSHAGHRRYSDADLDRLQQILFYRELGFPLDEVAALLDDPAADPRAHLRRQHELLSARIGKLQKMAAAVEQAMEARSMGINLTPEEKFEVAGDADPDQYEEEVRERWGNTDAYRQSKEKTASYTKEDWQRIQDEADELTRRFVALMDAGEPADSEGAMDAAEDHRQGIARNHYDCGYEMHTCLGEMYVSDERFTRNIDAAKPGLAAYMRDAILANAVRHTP
Kind of data set: fluorescence polarization; thiostrepton 1:1; 20 mM Tris-HCl pH 7.5, 200 mM NaCl, 5% (v/v) glycerol, 298 K; 10 nM labeled DNA. To be noted: protein: recombinant; tags: His6 (pET-28a); chain copies: 2; label: 5'-carboxyfluorescein; blunt.

Data set [11] has as its target T6, TipAL (Streptomyces lividans, UniProt P0A4T9 1-253).
T6 sequence: T5 sequence with A123F, A126F
The data set is described as above. The following applies: protein: recombinant; tags: His6 (pET-28a); chain copies: 2; label: 5'-carboxyfluorescein; blunt.

Data set [12] deals with T7, TipAL F123A (Streptomyces lividans, UniProt P0A4T9 1-253, F123A).
T7 sequence: T5 sequence with A126F
The description is as above. To be noted: protein: recombinant; tags: His6 (pET-28a); chain copies: 2; label: 5'-carboxyfluorescein; blunt.

Data set [13] deals with T8, TipAL I112A/F123A (Streptomyces lividans, UniProt P0A4T9 1-253, I112A;F123A).
T8 sequence: T5 sequence with I112A, A126F
Described as above. To be noted: protein: recombinant; tags: His6 (pET-28a); chain copies: 2; label: 5'-carboxyfluorescein; blunt.

Data set [14] concerns the target tipA promoter DNA (ptipA). Kind of data set: Fluorescence polarization assay, tipA promoter DNA binding. Further details: species or system Streptomyces lividans. The following applies: apo, no antibiotic; FPA, 10 nM 5'-carboxyfluorescein-labeled 26-bp dsDNA, 20 mM Tris-HCl pH 7.5, 200 mM NaCl, 5% glycerol, 298 K; ex 486/em 525 nm; one-site binding fit; three replicates; n.b. = printed in picture, not defined; read-out: Kd, affinity with the tipA promoter DNA (ptipA). The method, then: Fluorescence polarization assays (FPAs) were performed to test the structure-based hypothesis that α6–α7 plays a key role in communication between the ligand-binding and DNA-binding regions. […] Parallel experiments were also performed for Mta and SkgA proteins, and consistent results were obtained.
as §1
Background: In fluorescence polarisation assays a small probe gives low polarisation when free and higher when bound to something large.

On the set-up of data set [15]: method as in PMID 11669632, PMID 14985361. The following applies: ref [19], [26]; cited from earlier work.

Chain of WT TipAL (P0A4T9 whole entry): as the sequence (P0A4T9 whole entry F123A) above, with A123F counted along it

For the molecule `C=C(NC(=O)C(=C)NC(=O)c1csc(C2=N[C@@H]3c4csc(n4)[C@H]4NC(=O)c5csc(n5)[C@H]([C@](C)(O)[C@@H](C)O)NC(=O)[C@H]5CSC(=N5)/C(=C/C)NC(=O)[C@H]([C@@H](C)O)NC(=O)c5csc(n5)[C@]3(CC2)NC(=O)[C@H](C)NC(=O)C(=C)NC(=O)[C@H](C)NC(=O)[C@H]([C@@H](C)CC)N[C@@H]2C=Cc3c([C@H](C)O)cc(nc3[C@H]2O)C(=O)O[C@@H]4C)n1)C(N)=O` [thiostrepton], the “increase in ptipA affinity of TipAL by thiostrepton binding” value in data set [1] is reported as roughly 12.6 fold. For the same molecule, the “rise in ptipA binding in the presence of thiostrepton” value in [2] and in data set [3] was “did not show such a significant rise” in each case.
For orientation: Kd means the concentration at which binding is half-saturated. With `C=C(NC(=O)c1csc(-c2nc3c(cc2O)-c2nc(cs2)C(=O)NC(C(C)O)C(=O)N/C(=C\C)c2nc(cs2)C(=O)NC2CC(O)C(=O)OCc4cccc5[nH]c(c(C)c45)C(=O)SCC(NC(=O)c4csc2n4)c2nc-3cs2)n1)C(N)=O` (stereo not drawn) [thiopeptide, nosiheptide], the dissociation constant Kd in data set [4] was found to be 5230 ± 840 nM; in data set [5], 7120 ± 950 nM; in [6], 13200 ± 1360 nM; in [7] it was 7510 ± 870 nM. Moreover, the “decrease in thiopeptide affinity vs WT” value in data set [5] (F123A vs WT TipAL, ITC) is on record as roughly 1.4 fold; in data set [6] (F123A/F126A vs WT TipAL, ITC) it was roughly 2.5 fold. In addition, the “thiopeptide-binding affinity compared with WT and F123A” value in data set [7] (I112A/F123A vs WT and F123A TipAL, ITC) was “without a significant difference”.

B1: ptipA (dsDNA)
DNA 1: TTGCACCTCACGTCACGTGAGGAGGC
DNA 2: GCCTCCTCACGTGACGTGAGGTGCAA
As to B1, the equilibrium dissociation constant (Kd) in data set [8] came to 44 ± 5.1 nM; in data set [9], 318 ± 58.5 nM; in [10], 317 ± 51.4 nM; in data set [11], 30.2 ± 3.7 nM; in [12], 228 ± 25.9 nM; in data set [13], 685 ± 97.9 nM.

B2: TipAN: N terminus of TipAL, residues 1–109 (protein)
chain: T3 sequence
modifications: left off: His6, end not stated, state not stated
In the case of B2, the Kd in data set [14] came out at 44 ± 5.1 nM. In [15], the “transcriptional activity in the absence of the TipAS domain” value is listed as “constitutively transcriptionally active”.
